Data reported in patent US20070065805A1, “Cell migration assay” (GE Healthcare Bio-Sciences Corp., priority 2005, published 2007).
Entries after “also recorded” stand apart in the source; their conditions may differ.

Key:
neutrophil TEM = test: Neutrophil transendothelial migration (TEM) assay, 96-well collagen gel/HUVEC monolayer; assay type: cell-based, human; conditions: for Inhibition of neutrophil TEM: neutrophil pre-treated with inhibitor (1, 10-phenathronoline 12-1000 μM) for 0.5 hour, inhibitor present throughout the TEM assay, migrated cells counted at Z: 60 μm (FIG. 10)
Protocol: (§1) A 96-well plate (ViewPlate™, PerkinElmer Life and Analytical Sciences) was set on ice and 40 μl of gel (2.5 mg/ml) was dispensed into each well using stepper repeat pipette (500 or 1000 tip). The plate was spun at 1,500 rpm for 2 min at 4° C. The gel was solidified at 37° C. in a CO2-free incubator to establish a thick layer (200 μm) of collagen gel onto a well of 96-well plate. The following TEM assays were performed using collagen gel prepared in this manner.
The layer of collagen gel in each well was coated with 200 μl of 1 μg/ml human fibronectin (BD Biosciences) in serum-free EGM-2 medium for 1 hour at room temperature. After removal of the fibronectin containing-medium, HUVEC cells (CAMBREX) were seeded onto the gel and cultured in the EGM-2 medium for 3 days, at 37° C., and at a concentration of 40,000 cells/well. The cells were chosen from early passage (3rd to 4th), 70-80% confluent HUVEC cell cultures. The day before the assay, the HUVEC culture medium was replaced with either fresh EGM-2 medium alone, or the fresh EGM-2 medium containing 10 ng/ml IL-1 β (or TNF-α, or other chemoattractants). The mixture was incubated overnight to stimulate TEM.
Neutrophil or peripheral blood mononuclear cells (PBMC) were freshly isolated from blood Buffy coat. Briefly, RBC were removed using dextran sedimentation. Then PBMC were isolated by Ficoll-Hypaque centrifugation. Neutrophils were purified by hypotonic lysis of remaining RBC in the pellet of Ficoll-Hypaque centrifugation. The cells were labelled with CellTracker™ Green, by incubation in 0.5 to 1 μm dye in RPMI for 45 min at 37° C. The dye containing RPMI was removed and the cells washed once with serum-free RPMI medium. The cells were re-suspended in RPMI containing 0.2% HAS (assay medium) at 2.5×10^6 cells/ml.
On the assay day, the culture medium for the HUVEC cell culture was removed and the HUVEC monolayer washed 2 times with PBS and once with assay medium (0.2% of HAS in RPMI). 500,000 (200 μl) neutrophil or PBMC, which were CellTracker™ Green labelled, were placed on top of the HUVEC monolayer in each well. The assay was incubated further at 37° C. The length of time for the incubation is primary cell type dependent. For neutrophil, incubation time is within 2 hours and for PBMC, from 6 to 10 hours may be required.
(§2) After the required incubation time, images of neutrophil/PBMC cells which had migrated below the HUVEC layer were acquired. Often, it is sufficient to acquire images at a single Z position and quantify the number of migrated cells in the gel at targeted Z position. As an example, images at the 120 μm Z plane were quantified using the Z-slicing feature of IN Cell Analyzer 3000 (GE Healthcare). Images were analysed using the Object Intensity analysis module. The experiments were repeated multiple times, such that each data point—in the Figures—represents mean plus/minus standard deviation of 6 replicate wells, one Z plane of image/well.
Prior to the TEM assay, neutrophil were pre-treated with 1, 10-phenathronoline, a MMP-9 inhibitor (12-1000 μM) for 0.5 hour. The inhibitor was continuously present throughout the TEM assay. […] Each data point in FIG. 10 represents mean plus/minus SD of 6 replicate wells, one image/well at Z: 60 μm.

PBMC TEM = test: PBMC transendothelial migration (TEM) assay, 96-well collagen gel/HUVEC monolayer; assay type: cell-based, human; conditions: HUVEC incubated overnight with 10 ng/ml IL-1 β
Protocol: as §1
The layer of collagen gel in each well was coated with 200 μl of 1 μg/ml human fibronectin (BD Biosciences) in serum-free EGM-2 medium for 1 hour at room temperature. After removal of the fibronectin containing-medium, HUVEC cells (CAMBREX) were seeded onto the gel and cultured in the EGM-2 medium for 3 days, at 37° C., and at a concentration of 40,000 cells/well. The cells were chosen from early passage (3rd to 4th), 70-80% confluent HUVEC cell cultures. […]
as §2, with “The experiments were repeated multiple times, such that each data point—in the Figures—represents mean plus/minus standard deviation of 6 replicate wells, one Z plane of image/well.” left out

In the case of Interleukin-1-beta [IL-1β], the “Stimulation of neutrophil TEM” value (neutrophil TEM; HUVEC incubated overnight with 10 ng/ml IL-1 β) is reported as “potentiate transendothelial migration of both cell types”, the “Time for neutrophil TEM to reach a significant signal to noise ratio (IL-1β stimulated vs. non-stimulated)” value (neutrophil TEM; migrated cells quantified at Z: 120 μm, FIG. 7) is reported as 0.5 to 2 h and the “Stimulation of PBMC TEM” value (PBMC TEM) is reported as “potentiate transendothelial migration of both cell types”.

In the case of `c1cnc2c(c1)ccc1cccnc12` [1, 10-phenathronoline, reference compound], the “Inhibition of neutrophil TEM” value (neutrophil TEM) is reported as “inhibits neutrophil TEM; also recorded: Inhibition of neutrophil TEM”.

In the case of `C[C@H]1c2cccc(O)c2C(O)=C2C(=O)[C@]3(O)C(O)=C(C(N)=O)C(=O)[C@@H](N(C)C)[C@@H]3[C@@H](O)[C@@H]21` [doxycyclin, reference compound], the “Inhibition of neutrophil TEM” value (neutrophil TEM) is reported as “showed to inhibit TEM”.

With Interleukin-8 [IL-8] the “Effect of IL-8 soaking on neutrophil TEM” value (neutrophil TEM; collagen gel pre-soaked with culture medium containing IL-8 at 200 ng/ml for 4 hours) was “increase of neutrophil TEM; also recorded: generates a TEM effect similar to that of IL-1 β activation of HUVEC”.
